According to article PMC10817097, “Caffeic Acid Phosphanium Derivatives: Potential Selective Antitumor, Antimicrobial and Antiprotozoal Agents” (International Journal of Molecular Sciences, 2024):
In brackets after ≈: the same amount, converted by molar mass.

Key:
Format in all cases: cell-based
[1] = system: MDA-MB-231 (human mammary gland adenocarcinoma); experiment: MTS cell proliferation/viability assay; conditions: MDA-MB-231, MTS, 72 h
Protocol: (§1) The human cancer cell line HCT116 (human colorectal adenocarcinoma), HeLa (human cervical adenocarcinoma), Jurkat (human leukemic T cell lymphoma), and MDA-MB-231 (human mammary gland adenocarcinoma, triple-negative) were cultured in RPMI 1640 medium (Biosera, Kansas City, MO, USA). MCF-7 (human breast adenocarcinoma), A2058 (human metastatic melanoma), PANC-1 (human pancreatic adenocarcinoma), and NIH 3T3 (murine fibroblasts) cell lines were maintained in a growth medium consisting of high glucose Dulbecco’s Modified Eagle Medium with sodium pyruvate (Biosera, Kansas City, MO, USA). MCF-10A cell line (human mammary gland epithelial cells) was maintained in a growth medium consisting of high glucose DMEM F12 Medium (Biosera, Kansas City, MO, USA) + Suppl. (insulin, EGF-[…], HC-hydrocortisone, choleratoxin all Sigma, Steinheim, Germany). The growth medium was supplemented with a 10% fetal bovine serum, penicillin (100 IU/mL), and streptomycin (100 μg/mL) (all Invitrogen, Carlsbad, CA, USA), and cells were maintained in an atmosphere containing 5% CO2 in humidified air at 37 °C. Cell viability, estimated by trypan exclusion, was greater than 95% before each experiment.
(§2) The metabolic activity colorimetric assay (MTS) was used to determine the effects of CA (c = 10–300 µM) and compounds CAP 6, CAP 8, CAP 10, and CAP 12 (c = 1–100 µM) on the metabolic activity of several cell lines. After 72 h of incubation, 10 µL of MTS (Promega, Madison, WI, USA) was added to each well according to the CellTiter 96® AQueous One Solution Cell Proliferation Assay protocol. After a minimum of 1 h incubation, the absorbance was measured at 490 nm using the automated Cytation^TM 3 Cell Imaging Multi-Mode Reader (Biotek, Winooski, VT, USA). The absorbance of the control wells was taken as 1.0 (100%), and the results were expressed as a fold of the control. All experiments were performed in triplicate. Ideal predictive IC50 values were calculated from MTS analyses-based concentration concentration-dependent trends.

[2] = system: HeLa (human cervical adenocarcinoma); experiment: MTS cell proliferation/viability assay; conditions: 72 h
Protocol: as §1, §2

[3] = system: A. lugdunensis (AcaVNAK02); experiment: Amoebicidal activity assay on trophozoites; conditions: Acanthamoeba lugdunensis, 24 h of incubation
Protocol: (§3) The activity against two clinical isolates of free-living amoebae, Acanthamoeba lugdunensis (strain AcaVNAK02) and Acanthamoeba quina (strain AcaVNAK03), both belonging to the T4 genotype, was tested in vitro as previously described. The trophozoites were cultivated in 25 cm^2 tissue culture flasks under axenic conditions in peptone-yeast extract-glucose medium (PYG). The cultivation was carried out under aerobic conditions at laboratory temperature. For the experiments, a fresh 72 h culture was used. Acanthamoebae adherent to flasks represented the trophozoite form and was used in the subsequent assay. Experiments were carried out in 96-well microtiter plates under sterile conditions at 37 °C. Each well was seeded with 100 µL (2 × 10^5 cells mL^−1) of a trophozoite suspension. Then, 100 µL of a freshly prepared medium containing a tested compound at 6 different concentrations was added to all wells, except for the untreated control wells that received 100 µL of the pure medium. Each compound was tested at final concentrations of 500, 250, 125, 62.5, 31.25, and 15.6 µM. The reduction of trophozoites was recorded after 24 h by counting the surviving cells in a Bürker–Türk hemocytometer. The growth control after 24 h (amoebae in inoculum without treatment): A. lugdunensis (AcaVNAK02): 2.5 × 10^5 cells mL^−1, A. quina (AcaVNAK03): 2.1 × 10^5cells/mL comparing to initial inoculum 1 × 10^5 cells mL^−1. The viability of trophozoites was determined by trypan blue exclusion. The EC50 (effective concentration of tested compound that reduces the survival of amoebae by 50%) values were calculated by linear regression analysis using Microsoft Office Excel 2016 (Microsoft Corporation, Redmond, WA, USA) software. All experiments were performed in quadruplicate for each concentration.

A. quina (AcaVNAK03) = experiment: Amoebicidal activity assay on trophozoites; conditions: Acanthamoeba quina, 24 h of incubation
Protocol: as §3

[4] = system: Candida albicans CCM 8267; experiment: Broth dilution MIC and MFC for yeasts; conditions: for MIC: CCM8267, C. albicans CCM 8267; for MFC: CCM8267, C. albicans CCM 8267, inactivating 99.9% of inoculum
Protocol: The antimicrobial activity of caffeic acid and its semi-synthetic derivates was tested against Gram-positive (Staphylococcus aureus CCM 4750, methicillin-resistant; Staphylococcus aureus CCM 4223, methicillin-susceptible; Enterococcus faecalis CCM 4224) and Gram-negative bacteria (Pseudomonas aeruginosa CCM 3955; Escherichia coli CCM 3954; Klebsiella pneumoniae CCM 4415; Proteus mirabilis CCM 7188), and one strain of a yeast Candida albicans (CCM 8267). Microbial strains were purchased from the Czech Collection of Microorganisms, Brno, Czech Republic, and preserved in aliquots in cryoprotective media at −20 °C until the testing. Revival of cryoprotected bacteria took place by overnight cultivation on blood agar and an additional passage on blood agar. Minimal inhibitory concentrations (MIC) against bacteria were detected by broth microdilution test in sterile 96-well U-shaped microtiter plates (Roll s.a.s., Piove di Sacco, Italy) according to the EUCAST recommendations. The test was performed in 100 μL volumes in microtiter plate wells with a final bacterial concentration of 5 × 10^5 CFU·mL^−1. Antifungal activity testing was performed according to the EUCAST-recommended method for the determination of broth dilution minimum inhibitory concentrations of antifungal agents for yeasts, with some modifications. The final yeast concentration in the test wells was 10^4 CFU·mL^−1. The minimal bactericidal/fungicidal concentrations (MBC/MFC) were detected by point-inoculation of 5 μL aliquots from test wells without visible growth on solid agar media free of antimicrobials. Mueller–Hinton broth and agar were used for bacteria, and Sabouraud dextrose broth and agar for fungi (OXOID, Basingstoke, Hampshire, UK). The tested agents were dissolved in 50% ethanol, and serial dilutions were prepared in the test medium to obtain final concentrations ranging from 5000 to 5 μg·mL^−1, which corresponds to 27,753—54 μM for caffeic acid, 7251—14 μM for CAP 6, 6967—14 μM for CAP 8, 6705—13 μM for CAP 10 and 6462—13 μM for CAP 12. Wells with media free of bacteria served as sterility control and wells with bacteria without antimicrobial agents were used as growth control. The MIC was determined to be the lowest concentration of the antimicrobial agent inhibiting the growth of the tested microorganism, and the MBC/MFC was determined to be the lowest concentration, inactivating 99.9% of microbial inoculum. All tests were performed in three independent runs to exclude possible excessive values due to permissible measurement error.

| SMILES | IC50 [1] [µM] | IC50 [2] [µM] | EC50 [3] [µM] | EC50 (A. quina (AcaVNAK03)) [µM] | MIC [4] [µM] | MFC [4] [µM] |
| --- | --- | --- | --- | --- | --- | --- |
| CC(=O)Oc1ccc(/C=C/C(=O)OCCCCCC[P+](c2ccccc2)(c2ccccc2)c2ccccc2)cc1OC(C)=O [CAP 6, P,P,P-triphenyl-6-{(2E)-3-[3,4-(diacetyloxy)penyl]prop-2-enoyloxy}hexane-1-phosphanium bromide] | 37 ± 0.3 | 34 ± 1.8 | 74.2 ± 18.4 | 44.1 ± 9.2 | 57 | 57 |
| CC(=O)Oc1ccc(/C=C/C(=O)OCCCCCCCCCC[P+](c2ccccc2)(c2ccccc2)c2ccccc2)cc1OC(C)=O [CAP 10, P,P,P-triphenyl-10-{(2E)-3-[3,4-(diacetyloxy)penyl]prop-2-enoyloxy}decane-1-phosphanium bromide] | 4.9 ± 0.5 | 8 ± 0.7 | 834 ± 303 | 291 ± 36.8 | 13 | 13 |
| CC(=O)Oc1ccc(/C=C/C(=O)OCCCCCCCCCCCC[P+](c2ccccc2)(c2ccccc2)c2ccccc2)cc1OC(C)=O [CAP 12, P,P,P-triphenyl-12-{(2E)-3-[3,4-(diacetyloxy)penyl]prop-2-enoyloxy}dodecane-1-phosphanium bromide] | 3.5 ± 0.6 | 3.3 ± 1.1 | 3120 ± 941 | 3320 ± 2060 | 25 | 25 |
| CC(=O)Oc1ccc(/C=C/C(=O)OCCCCCCCC[P+](c2ccccc2)(c2ccccc2)c2ccccc2)cc1OC(C)=O [CAP 8, P,P,P-triphenyl-8-{(2E)-3-[3,4-(diacetyloxy)penyl]prop-2-enoyloxy}okctane-1-phosphanium bromide] | 4.8 ± 0.5 | 7.1 ± 0.3 | 99.8 ± 23.7 | 94.1 ± 14.5 | 27 | 27 |
| O=C(O)C=Cc1ccc(O)c(O)c1 [CA, 3-(3,4-dihydroxyphenyl)-2-propenoic acid, reference compound] | > 300 | > 300 | > 100000 | 3000 ± 1510 | 13900 (≈ 2500 µg/mL) | 13900 (≈ 2500 µg/mL) |
